Experimental data reported in patent US8901307B2, “Chemical compounds 251” (AstraZeneca AB, priority 2008, dated 2014).
Where a name gives a salt, the structure may show the parent alone.

Experiments:
[1] = target: T1, human His-PIM1 [2-313] (Homo sapiens, UniProt P11309); test: PIM1 in-vitro mobility shift assay (Caliper LC3000, FL-Ahx-Bad phosphorylation); type: biochemical; settings: 1.5 h; percent inhibition at 0.3 uM compound; read-out: PIM1 % I at 0.3 uM
T1 construct: purified human His-PIM1 [2-313] enzyme; His (N); purchased University of Dundee, Scotland; host or cells: baculovirus system
T1 sequence (P11309 2-313): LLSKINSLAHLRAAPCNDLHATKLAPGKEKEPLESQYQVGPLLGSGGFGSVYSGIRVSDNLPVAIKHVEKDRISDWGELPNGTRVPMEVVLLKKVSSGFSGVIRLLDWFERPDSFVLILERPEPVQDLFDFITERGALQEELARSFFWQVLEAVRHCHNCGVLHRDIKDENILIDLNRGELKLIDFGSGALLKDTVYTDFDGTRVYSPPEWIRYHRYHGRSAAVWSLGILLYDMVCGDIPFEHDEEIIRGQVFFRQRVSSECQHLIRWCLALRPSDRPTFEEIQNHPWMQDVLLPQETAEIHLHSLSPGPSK
Procedure, shortened: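 Compound preincubated 20 min at 25 °C with 2.4 nM PIM1, 3.6 µM FL-Ahx-Bad peptide and 240 µM ATP (1.2× mix concentrations). Reaction started with 24 mM MgCl2 mix, run 90 min at 25 °C, EDTA-stopped. Phospho/unphospho peptide separated by microfluidic mobility shift; percent inhibition from ratiometric turnover.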

[2] = target: T2, human His-PIM2 [23-299] (Homo sapiens, UniProt Q9P1W9); test: PIM2 in-vitro mobility shift assay (Caliper LC3000, FL-Ahx-Bad phosphorylation); type: biochemical; settings: 1.5 h; percent inhibition at 0.3 uM compound; read-out: PIM2 % I at 0.3 uM
T2 construct: purified human His-PIM2 [23-299] enzyme; His (N); host or cells: E. coli
T2 sequence (Q9P1W9 23-299): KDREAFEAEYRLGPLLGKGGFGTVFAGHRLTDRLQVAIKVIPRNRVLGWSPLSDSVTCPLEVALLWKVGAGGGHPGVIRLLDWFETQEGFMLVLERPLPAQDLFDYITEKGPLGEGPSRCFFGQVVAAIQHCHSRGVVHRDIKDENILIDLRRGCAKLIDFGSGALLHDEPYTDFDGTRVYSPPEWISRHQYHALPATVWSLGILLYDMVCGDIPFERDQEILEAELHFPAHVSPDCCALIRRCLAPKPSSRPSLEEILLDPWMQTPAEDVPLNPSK

| SMILES | inhibition at 0.3 µM [1] | inhibition at 0.3 µM [2] |
| --- | --- | --- |
| NCCC(=O)N1CCN(c2ccc(C(F)(F)F)cc2/C=C2\SC(=O)NC2=O)CC1 [Example 93, (Z)-5-(2-(4-(3-aminopropanoyl)piperazin-1-yl)-5-(trifluoromethyl)benzylidene)thiazolidine-2,4-dione hydrochloride] | > 95% | 66.3% |
| COc1cc(/C=C2\SC(=O)NC2=O)c(-c2ccncc2)cc1OC [Example 66, (Z)-5-(4,5-dimethoxy-2-(pyridin-4-yl)benzylidene)thiazolidine-2,4-dione] | 50.3% | 20.9% |
| NCCC(=O)N1CCN(c2ncccc2/C=C2\SC(=O)NC2=O)CC1 [Example 90, (Z)-5-((2-(4-(3-aminopropanoyl)piperazin-1-yl)pyridin-3-yl)methylene)thiazolidine-2,4-dione trifluoroacetate] | 78.2% | 86.3% |
| O=C1NC(=O)/C(=C/c2ccccc2N2CCCN(C(=O)C3CCCNC3)CC2)S1 (stereo not drawn) [Example 102, (Z)-5-(2-(4-(piperidine-3-carbonyl)-1,4-diazepan-1-yl)benzylidene)thiazolidine-2,4-dione hydrochloride] | 93.3% | 91.9% |
| CN(C)C1CCN(c2ccccc2/C=C2\SC(=O)NC2=O)C1 (stereo not drawn) [Example 48, (5Z)-5-{2-[3-(dimethylamino)pyrrolidin-1-yl]benzylidene}-1,3-thiazolidine-2,4-dione] | 84.4% | 41.3% |
| O=C1NC(=O)/C(=C/c2ccc3[nH]ccc3c2)S1 [Example 78, (5Z)-5-(1H-indol-5-ylmethylene)-1,3-thiazolidine-2,4-dione] | 71.4% | 30% |
| CC(C)CN1CCN(c2c(Cl)cc(C(F)(F)F)cc2/C=C2\SC(=O)NC2=O)CC1 [Example 12] | 80.2% | < 5% |
| O=C1NC(=O)/C(=C/c2cc(C(F)(F)F)ccc2N2CCNCC2)S1 [Example 87, (Z)-5-(2-(piperazin-1-yl)-5-(trifluoromethyl)benzylidene)thiazolidine-2,4-dione hydrochloride] | > 95% | 84.2% |
| CN(C)[C@H]1CCN(c2c(Cl)cccc2/C=C2\SC(=O)NC2=O)C1 [Example 38, (S,Z)-5-(3-chloro-2-(3-(dimethylamino)pyrrolidin-1-yl)benzylidene)thiazolidine-2,4-dione] | > 95% | 92.9% |
| CN(C)C1CCN(c2ccc(C(N)=O)cc2/C=C2\SC(=O)NC2=O)C1 (stereo not drawn) [Example 57, (Z)-4-(3-(dimethylamino)pyrrolidin-1-yl)-3-((2,4-dioxothiazolidin-5-ylidene)methyl)benzamide hydrochloride] | 53.3% | 42.6% |
| COc1cccc(/C=C2\SC(=O)NC2=O)c1N1CC[C@H](N)C1 [Example 96, hydrochloride] | > 95% | > 95% |
| C[C@@H]1CN(c2c(Cl)cccc2/C=C2\SC(=O)NC2=O)C[C@H](C)N1 [Example 37, (Z)-5-(3-chloro-2-((3S,5R)-3,5-dimethylpiperazin-1-yl)benzylidene)thiazolidine-2,4-dione] | 89.7% | 69.4% |
| O=C1NC(=O)/C(=C/c2ccccc2N2CCNCC2)S1 [Example 115, (5Z)-5-(2-piperazin-1-ylbenzylidene)-1,3-thiazolidine-2,4-dione hydrochloride] | 93.3% | 76.1% |
| Cc1ccc(C=C2SC(=O)NC2=O)c(N2CC[C@H](N(C)C)C2)c1 [Example 84J, (S)-5-(2-(3-(dimethylamino)pyrrolidin-1-yl)-4-methylbenzylidene)thiazolidine-2,4-dione] | 93.3% | 40.4% |
| O=C1NC(=O)/C(=C/c2cc(C(F)(F)F)cc(Cl)c2N2CCN(CCN3CCOCC3)CC2)S1 [Example 20] | 86.5% | 19.1% |
| CN(C)CCCN(C)c1c(Cl)cc(C(F)(F)F)cc1/C=C1\SC(=O)NC1=O [Example 25] | > 95% | 68.4% |
| O=C1NC(=O)/C(=C/c2cc(C(F)(F)F)cc(Cl)c2N2CCN(C3CCCC3)CC2)S1 [Example 6, (Z)-5-(3-chloro-2-(4-cyclopentylpiperazin-1-yl)-5 (trifluoromethyl)benzylidene)thiazolidine-2,4-dione hydrochloride] | 79.4% | 9.5% |
| CCN(CC)CCOc1ccc(OC)cc1/C=C1\SC(=O)NC1=O [Example 63, (Z)-5-(2-(2-(diethylamino)ethoxy)-5-methoxybenzylidene)thiazolidine-2,4-dione] | 79.2% | 21.5% |
| O=C1NC(=O)/C(=C/c2cc(C(F)(F)F)cc(Cl)c2N2CCC(N3CCCC3)CC2)S1 [Example 10] | > 95% | 50.1% |
| CC(C)(C)OC(=O)N1CCN(c2ccc(C(F)(F)F)cc2/C=C2\SC(=O)NC2=O)CC1 [Example 55, (Z)-tert-butyl 4-(2-((2,4-dioxothiazolidin-5-ylidene)methyl)-4-(trifluoromethyl)phenyl)piperazine-1-carboxylate] | 11% | < 5% |

Now from value to compound:

| inhibition at 0.3 µM [1] | inhibition at 0.3 µM [2] | SMILES |
| --- | --- | --- |
| > 95% | > 95% | CC(C)Oc1cccc(/C=C2\SC(=O)NC2=O)c1N1CC[C@H](N)C1 [Example 122P, (S,Z)-5-(2-(3-aminopyrrolidin-1-yl)-3-isopropoxybenzylidene)thiazolidine-2,4-dione hydrochloride] |
| > 95% | > 95% | N[C@@H]1CCCN(c2c(/C=C3\SC(=O)NC3=O)cccc2-c2ccccc2)C1 [Example 122AI, (R,Z)-5-((2-(3-aminopiperidin-1-yl)biphenyl-3-yl)methylene)thiaozlidine-2,4-dione] |
| > 95% | > 95% | COc1cccc(/C=C2\SC(=O)NC2=O)c1N1CC[C@H](NCCCN)C1 [Example 124] |
| > 95% | > 95% | NCCCCC(=O)N1CCN(c2ccccc2/C=C2\SC(=O)NC2=O)CC1 [Example 108, (Z)-5-(2-(4-(5-aminopentanoyl)piperazin-1-yl)benzylidene)thiazolidine-2,4-dione hydrochloride] |
| > 95% | > 95% | N[C@H]1CN(c2c(Cl)cccc2/C=C2\SC(=O)NC2=O)CC[C@@H]1O (racemic) [Example 122M, (±)-(Z)-5-(2,3-amino-4-hydroxypiperidin-1-yl)-3-chlorobenzylidene)thiazolidine-2,4-dione hydrochloride] |
| > 95% | 85.2% | O=C1NC(=O)/C(=C/c2cccc(Cl)c2N2CCC[C@@H](NCCCO)C2)S1 [Example 134] |
| 86.1% | 75.2% | O=C(CN1CC[S+]([O-])CC1)N[C@H]1CCN(c2c(Cl)cccc2/C=C2\SC(=O)NC2=O)C1 [Example 142] |
| 68.9% | 86.7% | N[C@@H]1CCCN(c2ccc(C(=O)O)cc2/C=C2\SC(=O)NC2=O)C1 [Example 122AG, (R,Z)-4-(3-aminopiperidin-1-yl)-3-((2,4-dioxothiazolidin-5-ylidene)methyl)benzoic acid hydrochloride] |
| > 95% | > 95% | NC(=O)c1ccc(N2CCC[C@@H](N)C2)c(/C=C2\SC(=O)NC2=O)c1 [Example 122AE, (R,Z)-4-(3-aminopiperidin-1-yl)-3-((2,4-dioxothiazolidin-5-ylidene)methyl)benzamide hydrochloride] |
| > 95% | > 95% | N[C@@H]1CCCN(c2ccccc2/C=C2\SC(=O)NC2=O)C1 [Example 122W, (R,Z)-5-(2-(3-aminopiperidin-1-yl)benzylidene)thiazolidine-2,4-dione hydrochloride] |
| > 95% | > 95% | NC[C@@H]1CCN(c2c(Cl)cccc2/C=C2\SC(=O)NC2=O)C1 [Example 122C, (S,Z)-5-(2-(3-(aminomethyl)pyrrolidin-1-yl)-3-chlorobenzylidene)thiazolidine-2,4-dione] |
| > 95% | > 95% | N[C@H]1CCN(c2c(/C=C3\SC(=O)NC3=O)cccc2OCC(F)(F)F)C1 [Example 122Z, (S,Z)-5-(2-(3-aminopyrrolidin-1-yl)-3-(2,2,2-trifluoroethoxy)benzylidene)thiazolidine-2,4-dione hydrochloride] |
| > 95% | 88.7% | NCCCCC(=O)N1CCCN(c2ccccc2/C=C2\SC(=O)NC2=O)CC1 [Example 103, (Z)-5-(2-(4-(5-aminopentanoyl)-1,4-diazepan-1-yl)benzylidene)thiazolidine-2,4-dione hydrochloride] |
| 90.9% | 90.7% | NCc1cccc(C(=O)N2CCN(c3ccccc3/C=C3\SC(=O)NC3=O)CC2)c1 [Example 110, (Z)-5-(2-(4-(3-(aminomethyl)benzoyl)piperazin-1-yl)benzylidene)thiazolidine-2,4-dione hydrochloride] |
| 88.9% | 48.5% | N#CCC(=O)N[C@H]1CCN(c2c(Cl)cccc2/C=C2\SC(=O)NC2=O)C1 [Example 146] |
| > 95% | > 95% | COc1cccc(/C=C2\SC(=O)NC2=O)c1N1CCC[C@@H](N)C1 [Example 122E, (R,Z)-5-(2-(3-aminopiperidin-1-yl)-3-methoxybenzylidene)thiazolidine-2,4-dione hydrochloride] |
